Source: ChEMBL document CHEMBL4665687, “Isolation of 2-Alkyl-4-quinolones with Unusual Side Chains from a Chinese Pseudomonas aeruginosa Isolate” (J Nat Prod, 2020)
Activity calls are given as the source filed them. No cut-off for these calls is given here.

Columns and labels:
[1] = tested on: Staphylococcus epidermidis; experiment: Antibacterial activity against Staphylococcus epidermidis; assay type: functional, organism-based
HeLa = experiment: Cytotoxicity against human HeLa cells assessed as reduction in cell viability; assay type: functional, cell-based
Staphylococcus aureus = experiment: Antibacterial activity against Staphylococcus aureus; assay type: functional, organism-based

SMILES	Activity [1]	Activity (HeLa)	Activity (Staphylococcus aureus)
CCCCCCC/C=C/c1cc(=O)c2ccccc2[nH]1	Active	inactive	Active
CCCCCC/C=C/Cc1cc(=O)c2ccccc2[nH]1	Active	inactive	Active
CCCC/C=C/Cc1cc(=O)c2ccccc2[nH]1	Active	inactive	Active
CCCCCCCc1cc(O)c2ccccc2[n+]1[O-]	Active	inactive	Active
CCCCC/C=C/c1cc(=O)c2ccccc2[nH]1	Active	inactive	Active
CCCCCCCCC/C=C/c1cc(=O)c2ccccc2[nH]1	Active	inactive	Active
CC(C)CCCCc1cc(=O)c2ccccc2[nH]1	Active	inactive	Active
CCCCCCCCCc1cc(=O)c2ccccc2[nH]1	Active	inactive	Active
O=c1cc(Cc2ccccc2)[nH]c2ccccc12	Active	inactive	Active
CC/C(C)=C/Cc1cc(=O)c2ccccc2[nH]1	Active	inactive	Active
CCCCCCCCc1cc(=O)c2ccccc2[nH]1	Active	inactive	Active
CCCCCC/C=C\CCCc1cc(=O)c2ccccc2n1O	Active	inactive	Active
CCCCCC/C=C\CCCc1cc(=O)c2ccccc2[nH]1	Active	inactive	Active
CS/C=C/c1cc(=O)c2ccccc2[nH]1	Active	inactive	Active
CCCCCCCc1cc(=O)c2ccccc2[nH]1	Active	inactive	Active
CCCC/C=C/CCCc1cc(=O)c2ccccc2[nH]1	Active	inactive	Active
